Measured values: patent US8124780B2, “Benzimidazole compound” (priority 2005, dated 2012)
Where a name gives a salt, the structure may show the parent alone. Read-outs that look alike come from different tables or passages of the source.

System: gastric acid secretion
Assay: animal or person
Type: in vivo, dog
Settings: for inhibition in vivo at 1.6 mg/kg / inhibition in vivo at 0.8 mg/kg: Canis lupus familiaris
[1] = iv, 24 h, read-out: Persistency of inhibitory effect against gastric acid secretion (%)
[2] = iv, read-out: Inhibitory effect against gastric acid secretion (%)

Row | Compound | inhibition in vivo at 1.6 mg/kg [1] [%] | inhibition in vivo at 1.6 mg/kg [2] [%] | inhibition in vivo at 0.8 mg/kg [1] [%] | inhibition in vivo at 0.8 mg/kg [2] [%] | further results
1 | Cc1c(OCC2(C)OCCO2)ccnc1C[S+]([O-])c1nc2ccccc2[nH]1 (stereo not drawn) [Example 70, Sodium salt of an optical isomer of 2-(((3-methyl-4-((2-methyl-1,3-dioxolan-2-yl)methoxy)pyridin-2-yl)methyl)sulfinyl)-1H-benzimidazole] | – | – | – | – | inhibition in vivo at 1.6 mg/kg (i.d., 24 h, dose 1.6 mg/kg i.d., second day, 24 hours after administration, histamine i.v., read-out: Persistency of inhibitory effect against gastric acid secretion (%)): 77%; inhibition in vivo at 1.6 mg/kg (i.d., dose 1.6 mg/kg i.d., first day, 1 h 40 min to 2 h after administration, histamine i.v., read-out: Inhibitory effect against gastric acid secretion (%)): 100%
2 | Cc1c(OCC2(C)OCCO2)ccnc1C[S+]([O-])c1nc2ccccc2[nH]1 (centres unmarked) [Example 67, 2-(((3-methyl-4-((2-methyl-1,3-dioxolan-2-yl)methoxy)pyridin-2-yl)methyl)sulfinyl)-1H-benzimidazole sodium salt] | 83 | 100 | – | – | –
3 | [O-][S+](Cc1cc(OC2COC3(CCC3)OC2)ccn1)c1nc2ccccc2[nH]1 (centres unmarked) [Example 83, 2-(((4-(5,9-dioxaspiro[3.5]non-7-yloxy)pyridin-2-yl)methyl)sulfinyl)-1H-benzimidazole sodium salt] | – | – | 94 | 71 | –
4 | CCC12OCC(COc3ccnc(C[S+]([O-])c4nc5ccccc5[n-]4)c3C)(CO1)CO2.[Na+] (centres unmarked) [Example 29, 2-(((4-((1-ethyl-2,6,7-trioxabicyclo[2.2.2]oct-4-yl)methoxy)-3-methylpyridin-2-yl)methyl)sulfinyl)-1H-benzimidazole sodium salt] | – | – | – | – | Inhibitory effect against gastric acid secretion (%) (dog, in vivo, iv, 1.6 mg/kg): 100%; Persistency of inhibitory effect against gastric acid secretion (%) (dog, in vivo, iv, 1.6 mg/kg): 87%
5 | Cc1c(OCC2OCC(F)(F)CO2)ccnc1C[S+]([O-])c1nc2ccccc2[nH]1 (centres unmarked) [Example 46, 2-(((4-((5,5-difluoro-1,3-dioxan-2-yl)methoxy)-3-methylpyridin-2-yl)methyl)sulfinyl)-1H-benzimidazole sodium salt] | – | – | 95 | 100 | –
6 | Cc1c(OC2COC3(CCC3)OC2)ccnc1C[S+]([O-])c1nc2ccccc2[nH]1 (centres unmarked) [Example 9, 2-(((4-(5,9-dioxaspiro[3.5]non-7-yloxy)-3-methylpyridin-2-yl)methyl)sulfinyl)-1H-benzimidazole sodium salt] | – | – | 90 | 100 | –
7 | [O-][S+](Cc1cc(OCC2COC(CF)(CF)OC2)ccn1)c1nc2ccccc2[nH]1 (centres unmarked) [Example 59, 2-(((4-((2,2-bis(fluoromethyl)-1,3-dioxan-5-yl)methoxy)pyridin-2-yl)methyl)sulfinyl)-1H-benzimidazole sodium salt] | – | – | 77 | 89 | –
8 | Cc1c(OCC2COc3ccccc3O2)ccnc1C[S+]([O-])c1nc2ccccc2[nH]1 (centres unmarked) [Example 61, 2-(((4-(2,3-dihydro-1,4-benzodioxin-2-ylmethoxy)-3-methylpyridin-2-yl)methyl)sulfinyl)-1H-benzimidazole sodium salt] | 90 | 100 | – | – | –
9 | Cc1c(OCCC2(C)OCCCO2)ccnc1C[S+]([O-])c1nc2ccccc2[nH]1 (centres unmarked) [Example 30, 2-(((3-methyl-4-(2-(2-methyl-1,3-dioxan-2-yl)ethoxy)pyridin-2-yl)methyl)sulfinyl)-1H-benzimidazole sodium salt] | 95 | 100 | 63 | 100 | –
10 | Cc1c(OCC2OCCCO2)ccnc1C[S+]([O-])c1nc2ccccc2[nH]1 (centres unmarked) [Example 32, 2-(((4-(1,3-dioxan-2-ylmethoxy)-3-methylpyridin-2-yl)methyl)sulfinyl)-1H-benzimidazole sodium salt] | 83 | 100 | – | – | –
11 | Cc1c(OCCC2COC3(CCC3)OC2)ccnc1C[S+]([O-])c1nc2ccccc2[nH]1 (centres unmarked) [Example 31, 2-(((4-(2-(5,9-dioxaspiro[3.5]non-7-yl)ethoxy)-3-methylpyridin-2-yl)methyl)sulfinyl)-1H-benzimidazole sodium salt] | 97 | 100 | – | – | –
12 | [O-][S+](Cc1cc(OCC2OCC3(CC3)CO2)ccn1)c1nc2ccccc2[nH]1 (centres unmarked) [Example 50, 2-(((4-(5,7-dioxaspiro[2.5]oct-6-ylmethoxy)pyridin-2-yl)methyl)sulfinyl)-1H-benzimidazole sodium salt] | – | – | 80 | 79 | –
13 | CCCC1(CCOc2ccnc(C[S+]([O-])c3nc4ccccc4[nH]3)c2C)OCCCO1 (centres unmarked) [Example 8, 2-(((3-methyl-4-(2-(2-propyl-1,3-dioxan-2-yl)ethoxy)pyridin-2-yl)methyl)sulfinyl)-1H-benzimidazole sodium salt] | – | – | 88 | 100 | –
14 | Cc1c(OCCC2OCC(C)(C)CO2)ccnc1C[S+]([O-])c1nc2ccccc2[nH]1 (centres unmarked) [Example 86, 2-(((4-(2-(5,5-dimethyl-1,3-dioxan-2-yl)ethoxy)-3-methylpyridin-2-yl)methyl)sulfinyl)-1H-benzimidazole sodium salt] | – | – | 75 | 100 | –
15 | Cc1c(OC2CCC3(CC2)OCCO3)ccnc1C[S+]([O-])c1nc2ccccc2[nH]1 (centres unmarked) [Example 27, 2-(((4-(1,4-dioxaspiro[4.5]dec-8-yloxy)-3-methylpyridin-2-yl)methyl)sulfinyl)-1H-benzimidazole sodium salt] | 92 | 100 | – | – | –
16 | Cc1c(OCC2COC(C)(C)O2)ccnc1C[S+]([O-])c1nc2cc(F)ccc2[nH]1 (centres unmarked) [Example 52, 2-(((4-((2,2-dimethyl-1,3-dioxolan-4-yl)methoxy)-3-methylpyridin-2-yl)methyl)sulfinyl)-5-fluoro-1H-benzimidazole sodium salt] | 87 | 100 | – | – | –
17 | CCC1(CC)OCC(COc2ccnc(C[S+]([O-])c3nc4ccccc4[nH]3)c2C)CO1 (centres unmarked) [Example 23, 2-(((4-((2,2-diethyl-1,3-dioxan-5-yl)methoxy)-3-methylpyridin-2-yl)methyl)sulfinyl)-1H-benzimidazole sodium salt] | 92 | 100 | – | – | –
18 | Cc1c(OCCC2(C)OCC3(CO2)OCCO3)ccnc1C[S+]([O-])c1nc2ccccc2[nH]1 (centres unmarked) [Example 73, 2-(((3-methyl-4-(2-(8-methyl-1,4,7,9-tetraoxaspiro[4.5]dec-8-yl)ethoxy)pyridin-2-yl)methyl)sulfinyl)-1H-benzimidazole sodium salt] | – | – | 94 | 100 | –
19 | COCC1(CCOc2ccnc(C[S+]([O-])c3nc4ccccc4[nH]3)c2C)OCCCO1 (centres unmarked) [Example 36, 2-(((4-(2-(2-(methoxymethyl)-1,3-dioxan-2-yl)ethoxy)-3-methylpyridin-2-yl)methyl)sulfinyl)-1H-benzimidazole sodium salt] | 90 | 100 | – | – | –
20 | Cc1ccc2[nH]c([S+]([O-])Cc3nccc(OCC4COC(C)(C)OC4)c3C)nc2c1 (centres unmarked) [Example 55, 2-(((4-((2,2-dimethyl-1,3-dioxan-5-yl)methoxy)-3-methylpyridin-2-yl)methyl)sulfinyl)-5-methyl-1H-benzimidazole sodium salt] | – | – | 75 | 83 | –
21 | CCCC1(CCOc2ccnc(C[S+]([O-])c3nc4ccccc4[nH]3)c2C)OCCO1 (centres unmarked) [Example 3, 2-(((3-methyl-4-(2-(2-propyl-1,3-dioxolan-2-yl)ethoxy)pyridin-2-yl)methyl)sulfinyl)-1H-benzimidazole sodium salt] | – | – | 86 | 100 | –
